Measurements from paper PMC8341778, “Deciphering the substrate recognition mechanisms of the heparan sulfate 3-O-sulfotransferase-3” (RSC Chemical Biology, 2021).

What was measured:
[1] = molecular target: T1, 3-OST-3 (Homo sapiens, UniProt Q9Y663); test: inhibition of sulfotransferase activity; assay type: biochemical
T1 construct: gene HS3ST3A1; purified enzyme; two molecules in the asymmetric unit
T1 sequence (Q9Y663 1-406): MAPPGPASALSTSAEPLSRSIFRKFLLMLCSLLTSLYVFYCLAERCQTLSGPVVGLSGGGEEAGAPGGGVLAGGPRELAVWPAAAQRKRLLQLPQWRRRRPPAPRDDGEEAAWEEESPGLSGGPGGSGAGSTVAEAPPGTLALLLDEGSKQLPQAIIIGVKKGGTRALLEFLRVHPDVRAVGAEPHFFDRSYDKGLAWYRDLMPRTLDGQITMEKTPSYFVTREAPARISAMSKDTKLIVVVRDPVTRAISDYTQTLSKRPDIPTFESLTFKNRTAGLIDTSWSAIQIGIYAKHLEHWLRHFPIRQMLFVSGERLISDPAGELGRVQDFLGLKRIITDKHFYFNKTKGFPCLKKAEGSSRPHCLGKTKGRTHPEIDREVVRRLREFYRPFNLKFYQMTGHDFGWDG

[2] = molecular target: T1, 3-OST-3; test: isothermal titration calorimetry; assay type: binding
[3] = molecular target: T1, 3-OST-3; test: crystal structure of ternary complex, […] Å; assay type: binding; settings: with PAP; sodium ion at saccharides f and g

SMILES | IC50 ([1]; product inhibition) [nM] | Kd [2] [nM] | crystal structure of ternary complex, 2.34 Å [3] | IC50 ([1]; product inhibition, 8-mer 1 sulfation) [nM] | IC50 ([1]; substrate inhibition, compound is itself slowly sulfated) [nM]
CC(=O)N[C@H]1[C@@H](O[C@H]2[C@H](O)[C@@H](O)[C@H](O[C@H]3[C@H](O)[C@@H](NS(=O)(=O)O)[C@@H](O[C@H]4[C@H](O)[C@@H](OS(=O)(=O)O)[C@H](O[C@H]5[C@H](OS(=O)(=O)O)[C@@H](NS(=O)(=O)O)[C@@H](O[C@H]6[C@H](O)[C@@H](OS(=O)(=O)O)[C@H](O[C@H]7[C@H](O)[C@@H](NS(=O)(=O)O)[C@@H](O[C@H]8[C@H](O)[C@@H](O)[C@H](Oc9ccc([N+](=O)[O-])cc9)O[C@@H]8C(=O)O)O[C@@H]7COS(=O)(=O)O)O[C@H]6C(=O)O)O[C@@H]5COS(=O)(=O)O)O[C@H]4C(=O)O)O[C@@H]3COS(=O)(=O)O)O[C@@H]2C(=O)O)O[C@H](COS(=O)(=O)O)[C@@H](O)[C@@H]1O [8-mer 4] | 12 | 4700 |  |  | 
CC(=O)N[C@H]1[C@@H](O[C@H]2[C@H](O)[C@@H](O)[C@H](O[C@H]3[C@H](O)[C@@H](NS(=O)(=O)O)[C@@H](O[C@H]4[C@H](O)[C@@H](OS(=O)(=O)O)[C@H](O[C@H]5[C@H](O)[C@@H](NS(=O)(=O)O)[C@@H](O[C@H]6[C@H](O)[C@@H](OS(=O)(=O)O)[C@H](O[C@H]7[C@H](O)[C@@H](NS(=O)(=O)O)[C@@H](O[C@H]8[C@H](O)[C@@H](O)[C@H](Oc9ccc([N+](=O)[O-])cc9)O[C@@H]8C(=O)O)O[C@@H]7CO)O[C@H]6C(=O)O)O[C@@H]5CO)O[C@H]4C(=O)O)O[C@@H]3CO)O[C@@H]2C(=O)O)O[C@H](CO)[C@@H](O)[C@@H]1O [8-mer 1] |  |  | crystal structures of 3-OST-3 in the presence of PAP, the sulfo donor product analog |  | 
CC(=O)N[C@H]1[C@@H](O[C@H]2[C@H](O)[C@@H](O)[C@H](O[C@H]3[C@H](O)[C@@H](NS(=O)(=O)O)[C@@H](O[C@H]4[C@H](O)[C@@H](OS(=O)(=O)O)[C@H](O[C@H]5[C@H](OS(=O)(=O)O)[C@@H](NS(=O)(=O)O)[C@@H](O[C@H]6[C@H](O)[C@@H](OS(=O)(=O)O)[C@H](O[C@H]7[C@H](O)[C@@H](NS(=O)(=O)O)[C@@H](O[C@H]8[C@H](O)[C@@H](O)[C@H](Oc9ccc([N+](=O)[O-])cc9)O[C@@H]8C(=O)O)O[C@@H]7CO)O[C@H]6C(=O)O)O[C@@H]5CO)O[C@H]4C(=O)O)O[C@@H]3CO)O[C@@H]2C(=O)O)O[C@H](CO)[C@@H](O)[C@@H]1O [8-mer 2] |  | 74000 |  | ~1000 | 
CC(=O)N[C@H]1[C@@H](O[C@H]2[C@H](O)[C@@H](O)[C@H](O[C@H]3[C@H](O)[C@@H](NS(=O)(=O)O)[C@@H](O[C@H]4[C@H](O)[C@@H](OS(=O)(=O)O)[C@H](O[C@H]5[C@H](O)[C@@H](NS(=O)(=O)O)[C@@H](O[C@H]6[C@H](O)[C@@H](OS(=O)(=O)O)[C@H](O[C@H]7[C@H](O)[C@@H](NS(=O)(=O)O)[C@@H](O[C@H]8[C@H](O)[C@@H](O)[C@H](Oc9ccc([N+](=O)[O-])cc9)O[C@@H]8C(=O)O)O[C@@H]7COS(=O)(=O)O)O[C@H]6C(=O)O)O[C@@H]5COS(=O)(=O)O)O[C@H]4C(=O)O)O[C@@H]3COS(=O)(=O)O)O[C@@H]2C(=O)O)O[C@H](COS(=O)(=O)O)[C@@H](O)[C@@H]1O [8-mer 3] |  | 10000 |  |  | 150
